# Source: US20250230193A1, “CYCLIC COMPOUND HAVING SELECTIVE KRAS INHIBITORY EFFECT ON HRAS AND NRAS” (CHUGAI SEIYAKU KABUSHIKI KAISHA, priority 2022, published 2025)
# *1 amine or outer side, *2 acyl side, *3 side chain or, on linkers, in order; H or OH if unused. Where a SMILES comes first, the peptide text is derived from it. Bridges are numbered along the chain shown (N, C = ends). [ ]: non-standard residue; d: D form. The star is where a group is joined. hPhe(3-Cl-4-CF3) = N[C@@H](CCc1ccc(C(F)(F)F)c(Cl)c1)C(=O)O; NPrPhe(4-CF3) = CCCN[C@@H](Cc1ccc(C(F)(F)F)cc1)C(=O)O; NPrAsp = CCCN([C@@H](CC(=O)[*:3])C(=O)[*:2])[*:1]; NEtAsp = CCN([C@@H](CC(=O)[*:3])C(=O)[*:2])[*:1]; X30 = CCN([C@H](C(=O)[*:2])C1CCCC1)[*:1]; NMeGly(cPent) = CN[C@H](C(=O)O)C1CCCC1; Ac4c(3,3-Me2) = CC1(C)CC(N)(C(=O)O)C1; NMeNva(3-Et) = CCC(CC)[C@H](NC)C(=O)O; NMeD = CN[C@@H](CC(=O)O)C(=O)O; NMeL = CN[C@@H](CC(C)C)C(=O)O; NMeNva = CCC[C@H](NC)C(=O)O; Morpholide = C1CN(*)CCO1; NMeA = CN[C@@H](C)C(=O)O; Aze = O=C(O)[C@@H]1CCN1; Ac4c = NC1(C(=O)O)CCC1; NPrGly = CCCNCC(=O)O; NEtG = CCNCC(=O)O; Sar = CNCC(=O)O
# Columns and labels:
# [1] = molecular target: GDP-bound HRAS wild-type protein (Homo sapiens, UniProt P01112); experiment: Binding to HRAS by surface plasmon resonance (SPR), Single Cycle Kinetics; settings: KD ratio, GDP-bound HRAS wild-type vs GDP-bound KRAS wild-type, SPR
# [2] = molecular target: GDP-bound NRAS wild-type protein (Homo sapiens, UniProt P01111); experiment: Binding to NRAS by surface plasmon resonance (SPR), Single Cycle Kinetics; settings: KD ratio, GDP-bound NRAS wild-type vs GDP-bound KRAS wild-type, SPR
# Chain of GDP-bound NRAS wild-type protein (P01111 whole entry): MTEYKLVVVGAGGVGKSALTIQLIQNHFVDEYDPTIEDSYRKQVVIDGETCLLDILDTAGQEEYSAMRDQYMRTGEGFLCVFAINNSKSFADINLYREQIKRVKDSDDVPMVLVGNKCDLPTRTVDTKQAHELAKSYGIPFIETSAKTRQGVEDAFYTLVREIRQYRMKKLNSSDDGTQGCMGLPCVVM
# Chain of GDP-bound HRAS wild-type protein (P01112 whole entry): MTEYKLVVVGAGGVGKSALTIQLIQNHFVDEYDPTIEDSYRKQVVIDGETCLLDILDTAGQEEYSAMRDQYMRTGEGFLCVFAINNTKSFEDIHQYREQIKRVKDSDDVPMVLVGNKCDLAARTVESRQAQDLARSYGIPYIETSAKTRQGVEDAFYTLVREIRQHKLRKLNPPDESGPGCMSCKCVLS
SMILES,HRAS/KRAS (ratio of KD value for HRAS to KD value for KRAS) [1],NRAS/KRAS (ratio of KD value for NRAS to KD value for KRAS) [2]
CCC[C@H]1C(=O)N[C@@H]([C@@H](C)CC)C(=O)N(C)CC(=O)N(CCC)CC(=O)N(CCC)[C@@H](Cc2ccc(C(F)(F)F)cc2)C(=O)N(C)CC(=O)N[C@@H](CCc2ccc(C(F)(F)F)c(Cl)c2)C(=O)N2CCC[C@H]2C(=O)NC2(CCC2)C(=O)N(C)[C@@H](C2CCCC2)C(=O)N(C)[C@H](C(=O)N2CCOCC2)CC(=O)N1C [PP1949] ([NMeNva]I[Sar][NPrGly][NPrPhe(4-CF3)][Sar][hPhe(3-Cl-4-CF3)]P[Ac4c][NMeGly(cPent)][NMeD]-Morpholide; lactam N-11),C (A compound having a KD ratio of 0.1 or more and less than 3 is denoted as C),C (A compound having a KD ratio of 0.1 or more and less than 3 is denoted as C)
CCCN1C(=O)CN(C)C(=O)CN(C)C(=O)[C@H]([C@@H](C)CC)NC(=O)[C@H](CC(C)C)N(C)C(=O)C[C@@H](C(=O)N2CCOCC2)N(C)C(=O)[C@H](C2CCCC2)N(C)C(=O)C2(CCC2)NC(=O)[C@@H]2CCCN2C(=O)[C@H](CCc2ccc(C(F)(F)F)c(Cl)c2)NC(=O)CN(CC)C(=O)[C@@H]1Cc1ccc(C(F)(F)F)cc1 [PP1950] ([NMeL]I[Sar][Sar][NPrPhe(4-CF3)][NEtG][hPhe(3-Cl-4-CF3)]P[Ac4c][NMeGly(cPent)][NMeD]-Morpholide; lactam N-11),C (A compound having a KD ratio of 0.1 or more and less than 3 is denoted as C),B (a compound having 3 or more and less than 10 is denoted as B)
CCCN1C(=O)CN(C)C(=O)CN(C)C(=O)[C@H]([C@@H](C)CC)NC(=O)[C@H](CC(C)C)N(C)C(=O)C[C@@H](C(=O)N2CCOCC2)N(C)C(=O)[C@H](C2CCCC2)N(CC)C(=O)C2(CCC2)NC(=O)[C@@H]2CCCN2C(=O)[C@H](CCc2ccc(C(F)(F)F)c(Cl)c2)NC(=O)CN(C)C(=O)[C@@H]1Cc1ccc(C(F)(F)F)cc1 [PP1952] ([NMeL]I[Sar][Sar][NPrPhe(4-CF3)][Sar][hPhe(3-Cl-4-CF3)]P[Ac4c][X30][NMeD]-Morpholide; lactam N-11),B (a compound having 3 or more and less than 10 is denoted as B),B (a compound having 3 or more and less than 10 is denoted as B)
CCCN1C(=O)CN(C)C(=O)CN(C)C(=O)[C@H]([C@@H](C)CC)NC(=O)[C@H](CC(C)C)N(C)C(=O)C[C@@H](C(=O)N2CCOCC2)N(CC)C(=O)[C@H](C2CCCC2)N(C)C(=O)C2(CCC2)NC(=O)[C@@H]2CCCN2C(=O)[C@H](CCc2ccc(C(F)(F)F)c(Cl)c2)NC(=O)CN(C)C(=O)[C@@H]1Cc1ccc(C(F)(F)F)cc1 [PP1953] ([NMeL]I[Sar][Sar][NPrPhe(4-CF3)][Sar][hPhe(3-Cl-4-CF3)]P[Ac4c][NMeGly(cPent)][NEtAsp]-Morpholide; lactam N-11),B (a compound having 3 or more and less than 10 is denoted as B),B (a compound having 3 or more and less than 10 is denoted as B)
CCC[C@H]1C(=O)N[C@@H]([C@@H](C)CC)C(=O)N(C)CC(=O)N(C)CC(=O)N(CCC)[C@@H](Cc2ccc(C(F)(F)F)cc2)C(=O)N(C)CC(=O)N[C@@H](CCc2ccc(C(F)(F)F)c(Cl)c2)C(=O)N2CCC[C@H]2C(=O)NC2(CCC2)C(=O)N(C)[C@@H](C2CCCC2)C(=O)N(CCC)[C@H](C(=O)N2CCOCC2)CC(=O)N1C [PP1954] ([NMeNva]I[Sar][Sar][NPrPhe(4-CF3)][Sar][hPhe(3-Cl-4-CF3)]P[Ac4c][NMeGly(cPent)][NPrAsp]-Morpholide; lactam N-11),B (a compound having 3 or more and less than 10 is denoted as B),B (a compound having 3 or more and less than 10 is denoted as B)
CCC[C@H]1C(=O)N[C@@H]([C@@H](C)CC)C(=O)N(C)[C@@H](C)C(=O)N2CC[C@H]2C(=O)N(CCC)[C@@H](Cc2ccc(C(F)(F)F)cc2)C(=O)N(C)CC(=O)N[C@@H](CCc2ccc(C(F)(F)F)c(Cl)c2)C(=O)N2CCC[C@H]2C(=O)NC2(CCC2)C(=O)N(C)[C@@H](C2CCCC2)C(=O)N(CC)[C@H](C(=O)N2CCOCC2)CC(=O)N1C [PP1955] ([NMeNva]I[NMeA][Aze][NPrPhe(4-CF3)][Sar][hPhe(3-Cl-4-CF3)]P[Ac4c][NMeGly(cPent)][NEtAsp]-Morpholide; lactam N-11),B (a compound having 3 or more and less than 10 is denoted as B),C (A compound having a KD ratio of 0.1 or more and less than 3 is denoted as C)
CCCN1C(=O)CN(C)C(=O)CN(C)C(=O)[C@H]([C@@H](C)CC)NC(=O)[C@H](CC(C)C)N(C)C(=O)C[C@@H](C(=O)N(C)C)N(CC)C(=O)[C@H](C2CCCC2)N(C)C(=O)C2(CCC2)NC(=O)[C@@H]2CCCN2C(=O)[C@H](CCc2ccc(C(F)(F)F)c(Cl)c2)NC(=O)CN(C)C(=O)[C@@H]1Cc1ccc(C(F)(F)F)cc1 [PP1956] ([NMeL]I[Sar][Sar][NPrPhe(4-CF3)][Sar][hPhe(3-Cl-4-CF3)]P[Ac4c][NMeGly(cPent)][NEtAsp]-NMe2; lactam N-11),B (a compound having 3 or more and less than 10 is denoted as B),B (a compound having 3 or more and less than 10 is denoted as B)
CCCN1C(=O)[C@@H]2CCN2C(=O)[C@H](C)N(C)C(=O)[C@H]([C@@H](C)CC)NC(=O)[C@H](CC(C)C)N(C)C(=O)C[C@@H](C(=O)N(C)C)N(CC)C(=O)[C@H](C2CCCC2)N(C)C(=O)C2(CCC2)NC(=O)[C@@H]2CCCN2C(=O)[C@H](CCc2ccc(C(F)(F)F)c(Cl)c2)NC(=O)CN(C)C(=O)[C@@H]1Cc1ccc(C(F)(F)F)cc1 [PP1957] ([NMeL]I[NMeA][Aze][NPrPhe(4-CF3)][Sar][hPhe(3-Cl-4-CF3)]P[Ac4c][NMeGly(cPent)][NEtAsp]-NMe2; lactam N-11),B (a compound having 3 or more and less than 10 is denoted as B),C (A compound having a KD ratio of 0.1 or more and less than 3 is denoted as C)
CCCN1C(=O)CN(C)C(=O)CN(C)C(=O)[C@H]([C@@H](C)CC)NC(=O)[C@H](CC(C)C)N(C)C(=O)C[C@@H](C(=O)N2CCOCC2)N(C)C(=O)[C@H](C(CC)CC)N(C)C(=O)C2(CCC2)NC(=O)[C@@H]2CCCN2C(=O)[C@H](CCc2ccc(C(F)(F)F)c(Cl)c2)NC(=O)CN(C)C(=O)[C@@H]1Cc1ccc(C(F)(F)F)cc1 [PP1958] ([NMeL]I[Sar][Sar][NPrPhe(4-CF3)][Sar][hPhe(3-Cl-4-CF3)]P[Ac4c][NMeNva(3-Et)][NMeD]-Morpholide; lactam N-11),B (a compound having 3 or more and less than 10 is denoted as B),B (a compound having 3 or more and less than 10 is denoted as B)
CCC[C@H]1C(=O)N[C@@H]([C@@H](C)CC)C(=O)N(C)[C@@H](C)C(=O)N2CC[C@H]2C(=O)N(CCC)[C@@H](Cc2ccc(C(F)(F)F)cc2)C(=O)N(C)CC(=O)N[C@@H](CCc2ccc(C(F)(F)F)c(Cl)c2)C(=O)N2CCC[C@H]2C(=O)NC2(CCC2)C(=O)N(C)[C@@H](C(CC)CC)C(=O)N(C)[C@H](C(=O)N2CCOCC2)CC(=O)N1C [PP1959] ([NMeNva]I[NMeA][Aze][NPrPhe(4-CF3)][Sar][hPhe(3-Cl-4-CF3)]P[Ac4c][NMeNva(3-Et)][NMeD]-Morpholide; lactam N-11),B (a compound having 3 or more and less than 10 is denoted as B),C (A compound having a KD ratio of 0.1 or more and less than 3 is denoted as C)
CCCN1C(=O)CN(C)C(=O)CN(C)C(=O)[C@H]([C@@H](C)CC)NC(=O)[C@H](CC(C)C)N(C)C(=O)C[C@@H](C(=O)N(C)C)N(C)C(=O)[C@H](C(CC)CC)N(C)C(=O)C2(CCC2)NC(=O)[C@@H]2CCCN2C(=O)[C@H](CCc2ccc(C(F)(F)F)c(Cl)c2)NC(=O)CN(C)C(=O)[C@@H]1Cc1ccc(C(F)(F)F)cc1 [PP1960] ([NMeL]I[Sar][Sar][NPrPhe(4-CF3)][Sar][hPhe(3-Cl-4-CF3)]P[Ac4c][NMeNva(3-Et)][NMeD]-NMe2; lactam N-11),C (A compound having a KD ratio of 0.1 or more and less than 3 is denoted as C),B (a compound having 3 or more and less than 10 is denoted as B)
CCCN1C(=O)[C@@H]2CCN2C(=O)[C@H](C)N(C)C(=O)[C@H]([C@@H](C)CC)NC(=O)[C@H](CC(C)C)N(C)C(=O)C[C@@H](C(=O)N(C)C)N(C)C(=O)[C@H](C(CC)CC)N(C)C(=O)C2(CCC2)NC(=O)[C@@H]2CCCN2C(=O)[C@H](CCc2ccc(C(F)(F)F)c(Cl)c2)NC(=O)CN(C)C(=O)[C@@H]1Cc1ccc(C(F)(F)F)cc1 [PP1961] ([NMeL]I[NMeA][Aze][NPrPhe(4-CF3)][Sar][hPhe(3-Cl-4-CF3)]P[Ac4c][NMeNva(3-Et)][NMeD]-NMe2; lactam N-11),C (A compound having a KD ratio of 0.1 or more and less than 3 is denoted as C),C (A compound having a KD ratio of 0.1 or more and less than 3 is denoted as C)
"CCCN1C(=O)CN(C)C(=O)CN(C)C(=O)[C@H]([C@@H](C)OC)NC(=O)[C@H](CC(C)C)N(C)C(=O)C[C@@H](C(=O)N2CCOCC2)N(C)C(=O)[C@H](C2CCCC2)N(C)C(=O)C2(CC(C)(C)C2)NC(=O)[C@@H]2CCCN2C(=O)[C@H](CCc2ccc(C(F)(F)F)c(Cl)c2)NC(=O)CN(C)C(=O)[C@@H]1Cc1ccc(C(F)(F)F)cc1 [PP1963] ([NMeL]T(Me)[Sar][Sar][NPrPhe(4-CF3)][Sar][hPhe(3-Cl-4-CF3)]P[Ac4c(3,3-Me2)][NMeGly(cPent)][NMeD]-Morpholide; lactam N-11)",C (A compound having a KD ratio of 0.1 or more and less than 3 is denoted as C),B (a compound having 3 or more and less than 10 is denoted as B)
